According to US7037913B2, “Bicyclo 4.4.0 antiviral derivatives” (priority 2002, dated 2006):
pEC50: −log10 of the molar value.

Test system: HIV-1 single-round infectious reporter virus
Assay: Single-round infectious HIV-1 luciferase reporter virus infection of HeLa CD4 CCR5 cells
Format: cell-based
Conditions: Human immunodeficiency virus 1, HeLa-CD4/CCR5, 72 h, read-out: Group (EC50)
From the text: The materials and experimental procedures used to obtain the results for representative compounds of Formula I reported in Tables 7–9 are described below.
• Virus production—Human embryonic Kidney cell line, 293, propagated in Dulbecco's Modified Eagle Medium (Life Technologies, Gaithersburg, Md.) containing 10% fetal Bovine serum (FBS, Sigma, St. Louis, Mo.). • Virus infection—Human epithelial cell line, HeLa, expressing the HIV-1 receptors CD4 and CCR5 was propagated in Dulbecco's Modified Eagle Medium (Life Technologies, Gaithersburg, Md.) containing 10% fetal Bovine serum (FBS, Sigma, St. Louis, Mo.) and supplemented with 0.2 mg/ml Geneticin (Life Technologies, Gaithersburg, Md.) and 0.4 mg/ml Zeocin (Invitrogen, Carlsbad, Calif.). • Virus—Single-round infectious reporter virus was produced by co-transfecting human embryonic Kidney 293 cells with an HIV-1 envelope DNA expression vector and a proviral cDNA containing an envelope deletion mutation and the luciferase reporter gene inserted in place of HIV-1 nef sequences (Chen et al, Ref. 41). […] Viral infection was monitored by measuring luciferase expression from viral DNA in the infected cells using a luciferase reporter gene assay kit (Roche Molecular Biochemicals, Indianapolis, Ind.). […] Luciferase activity was then quantified by measuring luminescence using a Wallac microbeta scintillation counter. • 5. […]

C[C@@H]1CN(C(=O)c2ccccc2)CCN1C(=O)C(F)(F)c1ccc2ccccc2c1 [Example 54]
pEC50: > 6.00

C[C@@H]1CN(C(=O)c2ccccc2)CCN1C(=O)C1(c2ccc3ccccc3c2)CC1 [Example 55]
pEC50: > 6.00
